In US4698338A, “7[2-(2-aminothiazol-4-yl)-2-benzyloximino]acetamido-3[4-al kyl-5-oxo-6-hydroxy-3,4-dihydro-1,2,4-triazin-3-yl]thiomethyl cephalosporins” (Eli Lilly and Company, priority 1986, dated 1987):
Values after ≈ are worked out from the molar mass of the structure shown. Read-outs that look alike come from different tables or passages of the source.

How the values were obtained:
Assay in all cases: standard agar dilution in vitro test
Assay type in all cases: cell-based
Salmonella typhi 1335 = details: Salmonella enterica, read-out: Minimum Inhibitory Concentration
Text: (§1) The antibacterial activity of the compounds of the formula 1 is illustrated by the data presented in Table 2 for two such compounds. The data presented are the minimum inhibitory concentrations (μg/ml) against representative pathogens obtained in the standard agar dilution in vitro test.

Enterobacter cloacae EB5 = details: read-out: Minimum Inhibitory Concentration
Text: as §1

[1] = tested on: Staphylococcus epidermidis 222; details: read-out: Minimum Inhibitory Concentration
Text: as §1

[2] = tested on: Pseudomonas aeruginosa PS18; details: read-out: Minimum Inhibitory Concentration
Text: as §1

Shigella sonnei N9 = details: read-out: Minimum Inhibitory Concentration
Text: as §1

[3] = tested on: Citrobacter freundii CF17; details: read-out: Minimum Inhibitory Concentration
Text: as §1

[4] = tested on: Staphylococcus epidermidis EPi1; details: read-out: Minimum Inhibitory Concentration
Text: as §1

[5] = tested on: Acinetobacter calcoaceticus AC12; details: read-out: Minimum Inhibitory Concentration
Text: as §1

[6] = tested on: Streptococcus Group D 2041; details: GROUPD2041, read-out: Minimum Inhibitory Concentration
Text: as §1

[7] = tested on: Streptococcus Group D X66; details: read-out: Minimum Inhibitory Concentration
Text: as §1

Proteus inconstans PR33 = details: Providencia alcalifaciens
Text: as §1

[8] = tested on: Streptococcus pyogenes C203; details: read-out: Minimum Inhibitory Concentration
Text: as §1

[9] = tested on: Pseudomonas aeruginosa X239; details: read-out: Minimum Inhibitory Concentration
Text: as §1

[10] = tested on: Staphylococcus aureus X400; details: read-out: Minimum Inhibitory Concentration
Text: as §1

[11] = tested on: Pseudomonas aeruginosa X528; details: read-out: Minimum Inhibitory Concentration
Text: as §1

Escherichia coli EC14 = tested on: Escherichia coli EC14
Text: as §1

Escherichia coli TEM = details: read-out: Minimum Inhibitory Concentration
Text: as §1

Escherichia coli N10 = details: read-out: Minimum Inhibitory Concentration
Text: as §1

Serratia marcescens X99 = details: read-out: Minimum Inhibitory Concentration
Text: as §1

[12] = tested on: Klebsiella pneumoniae X68
Text: as §1

[13] = tested on: Haemophilus influenzae 76; details: read-out: Minimum Inhibitory Concentration
Text: as §1

Proteus rettgeri C24 = details: Providencia rettgeri
Text: as §1

Proteus morganii PR15 = details: Morganella morganii, read-out: Minimum Inhibitory Concentration
Text: as §1

[14] = tested on: Enterobacter cloacae 265A; details: read-out: Minimum Inhibitory Concentration
Text: as §1

[15] = tested on: Staphylococcus aureus X1.1; details: read-out: Minimum Inhibitory Concentration
Text: as §1

[16] = tested on: Staphylococcus aureus V41; details: read-out: Minimum Inhibitory Concentration
Text: as §1

[17] = tested on: Haemophilus influenzae C.L.; details: read-out: Minimum Inhibitory Concentration
Text: as §1

[18] = tested on: Streptococcus pneumoniae Park I; details: read-out: Minimum Inhibitory Concentration
Text: as §1

[19] = tested on: Pseudomonas aeruginosa PS72; details: read-out: Minimum Inhibitory Concentration
Text: as §1

Serratia marcescens SE3 = details: read-out: Minimum Inhibitory Concentration
Text: as §1

[20] = tested on: Enterobacter aerogenes C32; details: Klebsiella aerogenes, read-out: Minimum Inhibitory Concentration
Text: as §1

[21] = tested on: Klebsiella pneumoniae KAE; details: read-out: Minimum Inhibitory Concentration
Text: as §1

[22] = tested on: Enterobacter aerogenes EB17; details: Klebsiella aerogenes, read-out: Minimum Inhibitory Concentration
Text: as §1

[23] = tested on: Staphylococcus aureus 513E; details: read-out: Minimum Inhibitory Concentration
Text: as §1

Salmonella typhi X514 = details: Salmonella enterica, read-out: Minimum Inhibitory Concentration
Text: as §1

[24] = tested on: Klebsiella pneumoniae X26; details: read-out: Minimum Inhibitory Concentration
Text: as §1

## Cn1nc(O)c(=O)nc1SCC1=C(C(=O)O)N2C(=O)[C@@H](NC(=O)/C(=N\OCc3cc(Cl)ccc3Cl)c3csc(N)n3)[C@H]2SC1 [Test Compound B, 7β-[2-(2-Aminothiazol-4-yl)-2-(2,5-dichlorobenzyloxyimino)acetamido]-3-[(2,5-dihydro-6-hydroxy-2-methyl-5-oxo-1,2,4-triazin-3-yl)thiomethyl]-3-cephem-4-carboxylic acid]
Salmonella typhi 1335
  MIC: 1 µg/mL (≈ 1.43 µM)
Enterobacter cloacae EB5
  MIC: 0.25 µg/mL (≈ 0.357 µM)
[1]
  MIC: 0.5 µg/mL (≈ 0.715 µM)
[2]
  MIC: 32 µg/mL (≈ 45.7 µM)
Shigella sonnei N9
  MIC: 0.5 µg/mL (≈ 0.715 µM)
[3]
  MIC: 2 µg/mL (≈ 2.86 µM)
[4]
  MIC: 8 µg/mL (≈ 11.4 µM)
[5]
  MIC: 2 µg/mL (≈ 2.86 µM)
[6]
  MIC: 0.5 µg/mL (≈ 0.715 µM)
[7]
  MIC: > 128 µg/mL
Proteus inconstans PR33; Proteus inconstans PR33, agar dilution, read-out: Minimum Inhibitory Concentration
  MIC: 0.25 µg/mL (≈ 0.357 µM)
[8]
  MIC: < 0.008 µg/mL
[9]
  MIC: 8 µg/mL (≈ 11.4 µM)
[10]
  MIC: 32 µg/mL (≈ 45.7 µM)
[11]
  MIC: 64 µg/mL (≈ 91.5 µM)
Escherichia coli EC14; Escherichia coli EC14, agar dilution, read-out: Minimum Inhibitory Concentration
  MIC: 0.25 µg/mL (≈ 0.357 µM)
Escherichia coli TEM
  MIC: 0.06 µg/mL (≈ 0.0858 µM)
Escherichia coli N10
  MIC: 0.25 µg/mL (≈ 0.357 µM)
Serratia marcescens X99
  MIC: 1 µg/mL (≈ 1.43 µM)
[12]; Klebsiella pneumoniae X68, agar dilution, read-out: Minimum Inhibitory Concentration
  MIC: 0.25 µg/mL (≈ 0.357 µM)
[13]
  MIC: 0.015 µg/mL (≈ 0.0214 µM)
Proteus rettgeri C24; Proteus rettgeri C24, agar dilution, read-out: Minimum Inhibitory Concentration
  MIC: 0.5 µg/mL (≈ 0.715 µM)
Proteus morganii PR15
  MIC: 0.5 µg/mL (≈ 0.715 µM)
[14]
  MIC: 128 µg/mL (≈ 183 µM)
[15]
  MIC: 0.5 µg/mL (≈ 0.715 µM)
[16]
  MIC: 4 µg/mL (≈ 5.72 µM)
[17]
  MIC: 0.03 µg/mL (≈ 0.0429 µM)
[18]
  MIC: < 0.008 µg/mL
[19]
  MIC: 16 µg/mL (≈ 22.9 µM)
Serratia marcescens SE3
  MIC: 2 µg/mL (≈ 2.86 µM)
[20]
  MIC: 0.25 µg/mL (≈ 0.357 µM)
[21]
  MIC: 16 µg/mL (≈ 22.9 µM)
[22]
  MIC: 1 µg/mL (≈ 1.43 µM)
[23]
  MIC: 4 µg/mL (≈ 5.72 µM)
Salmonella typhi X514
  MIC: 0.25 µg/mL (≈ 0.357 µM)
[24]
  MIC: 0.06 µg/mL (≈ 0.0858 µM)

## Cn1nc(O)c(=O)nc1SCC1=C(C(=O)O)N2C(=O)[C@@H](NC(=O)/C(=N\OCc3ccc(O)cc3)c3csc(N)n3)[C@H]2SC1 [Test Compound A, 7β-[2-(2-Aminothiazol-4-yl)-2-(4-hydroxybenzyloxyimino)acetamido]-3-[(2,5-dihydro-6-hydroxy-2-methyl5-oxo-1,2,4-triazin-3-yl)thiomethyl]-3-cephem-4carboxylic acid]
Salmonella typhi 1335
  MIC: 0.25 µg/mL (≈ 0.387 µM)
Enterobacter cloacae EB5
  MIC: 0.5 µg/mL (≈ 0.773 µM)
[1]
  MIC: 2 µg/mL (≈ 3.09 µM)
[2]
  MIC: 16 µg/mL (≈ 24.7 µM)
Shigella sonnei N9
  MIC: 0.125 µg/mL (≈ 0.193 µM)
[3]
  MIC: 4 µg/mL (≈ 6.19 µM)
[4]
  MIC: 8 µg/mL (≈ 12.4 µM)
[5]
  MIC: 16 µg/mL (≈ 24.7 µM)
[6]
  MIC: 1 µg/mL (≈ 1.55 µM)
[7]
  MIC: 128 µg/mL (≈ 198 µM)
Proteus inconstans PR33; PR33, read-out: Minimum Inhibitory Concentration
  MIC: 0.125 µg/mL (≈ 0.193 µM)
[8]
  MIC: < 0.008 µg/mL
[9]
  MIC: 8 µg/mL (≈ 12.4 µM)
[10]
  MIC: 16 µg/mL (≈ 24.7 µM)
[11]
  MIC: 128 µg/mL (≈ 198 µM)
Escherichia coli EC14; Escherichia coli, EC14, read-out: Minimum Inhibitory Concentration
  MIC: 0.125 µg/mL (≈ 0.193 µM)
Escherichia coli TEM
  MIC: 0.03 µg/mL (≈ 0.0464 µM)
Escherichia coli N10
  MIC: 0.25 µg/mL (≈ 0.387 µM)
Serratia marcescens X99
  MIC: 0.5 µg/mL (≈ 0.773 µM)
[12]; Klebsiella pneumoniae, X68, read-out: Minimum Inhibitory Concentration
  MIC: 0.125 µg/mL (≈ 0.193 µM)
Proteus rettgeri C24; C24, read-out: Minimum Inhibitory Concentration
  MIC: 0.125 µg/mL (≈ 0.193 µM)
Proteus morganii PR15
  MIC: 1 µg/mL (≈ 1.55 µM)
[14]
  MIC: 128 µg/mL (≈ 198 µM)
[15]
  MIC: 1 µg/mL (≈ 1.55 µM)
[16]
  MIC: 8 µg/mL (≈ 12.4 µM)
[17]
  MIC: 0.03 µg/mL (≈ 0.0464 µM)
[18]
  MIC: < 0.008 µg/mL
[19]
  MIC: 64 µg/mL (≈ 99 µM)
Serratia marcescens SE3
  MIC: 4 µg/mL (≈ 6.19 µM)
[20]
  MIC: 0.25 µg/mL (≈ 0.387 µM)
[21]
  MIC: 16 µg/mL (≈ 24.7 µM)
[22]
  MIC: 0.5 µg/mL (≈ 0.773 µM)
[23]
  MIC: 8 µg/mL (≈ 12.4 µM)
Salmonella typhi X514
  MIC: 0.125 µg/mL (≈ 0.193 µM)
[24]
  MIC: 0.06 µg/mL (≈ 0.0928 µM)
